# Laboratory results published in ChEMBL document CHEMBL1138926, “New pyrrolopyrimidin-6-yl benzenesulfonamides: potent A2B adenosine receptor antagonists” (Bioorg Med Chem Lett, 2006).
# pIC50: −log10 of the molar value.
# Legend:
# Adenosine receptor A2b = molecular target: T1, Adenosine receptor A2b (Homo sapiens, UniProt P29275); assay: Displacement of [3H]DPCPX from human adenosine A2B receptor expressed in HEK293 cells; format: cell-based
# T1 sequence (P29275 whole entry): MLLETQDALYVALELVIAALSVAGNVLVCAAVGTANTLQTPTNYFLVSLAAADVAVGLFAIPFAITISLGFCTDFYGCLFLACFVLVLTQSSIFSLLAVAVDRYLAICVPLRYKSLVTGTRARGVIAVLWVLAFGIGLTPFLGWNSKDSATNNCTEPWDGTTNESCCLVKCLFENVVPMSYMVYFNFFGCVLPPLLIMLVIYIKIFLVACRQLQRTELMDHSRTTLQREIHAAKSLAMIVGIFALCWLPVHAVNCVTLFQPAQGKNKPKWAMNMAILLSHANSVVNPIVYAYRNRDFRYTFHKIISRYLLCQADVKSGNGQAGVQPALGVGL
# [1] = Solubility of the compound; format: physicochemical
# Adenosine receptor A1 = molecular target: T2, Adenosine receptor A1 (Homo sapiens, UniProt P30542); assay: Displacement of [3H]DPCPX from human adenosine A1 receptor expressed in CHO cells; format: cell-based
# T2 sequence (P30542 whole entry): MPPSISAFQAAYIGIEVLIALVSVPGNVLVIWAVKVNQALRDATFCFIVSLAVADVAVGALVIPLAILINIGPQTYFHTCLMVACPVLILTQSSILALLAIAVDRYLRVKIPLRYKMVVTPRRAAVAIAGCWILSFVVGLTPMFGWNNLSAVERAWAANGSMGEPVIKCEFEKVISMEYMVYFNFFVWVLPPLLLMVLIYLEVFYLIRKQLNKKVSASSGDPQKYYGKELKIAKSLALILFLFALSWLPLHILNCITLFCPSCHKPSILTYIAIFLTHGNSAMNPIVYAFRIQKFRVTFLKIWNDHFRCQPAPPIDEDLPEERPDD
# Adenosine receptor A3 = molecular target: T3, Adenosine receptor A3 (Homo sapiens, UniProt P0DMS8); assay: Displacement of [3H]NECA from human adenosine A3 receptor expressed in HeLa cells; format: cell-based
# T3 sequence (P0DMS8 whole entry): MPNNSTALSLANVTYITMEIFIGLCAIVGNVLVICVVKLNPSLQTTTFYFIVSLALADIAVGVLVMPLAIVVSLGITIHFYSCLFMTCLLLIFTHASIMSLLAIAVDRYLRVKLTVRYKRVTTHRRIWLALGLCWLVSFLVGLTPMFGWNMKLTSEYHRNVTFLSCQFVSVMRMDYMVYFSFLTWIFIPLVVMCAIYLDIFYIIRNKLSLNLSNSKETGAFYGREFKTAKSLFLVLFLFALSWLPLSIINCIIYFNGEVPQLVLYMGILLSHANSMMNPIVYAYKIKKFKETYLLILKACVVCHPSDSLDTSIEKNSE
# [2] = AUC in rat at 10 mg/kg, po; format: ADME, organism-based; parameters: dose 10 mg/kg, route oral; conditions: plasma
# [3] = Solubility at pH 1.2; format: physicochemical; conditions: buffer
# [4] = Tmax in rat at 10 mg/kg, po; format: ADME, organism-based; parameters: dose 10 mg/kg, route oral; conditions: in vivo
# [5] = molecular target: Adenosine receptors; A2b & A3 (Homo sapiens) (UniProt P29275+P0DMS8); assay: Selectivity for human adenosine A2B receptor over adenosine A3 receptor; format: protein assay
# [6] = molecular target: Adenosine receptors; A1 & A2b (Homo sapiens) (UniProt P30542+P29275); assay: Selectivity for human adenosine A2B receptor over adenosine A1 receptor; format: protein assay
SMILES,pIC50 (Adenosine receptor A2b),pIC50 (Adenosine receptor A1),pIC50 (Adenosine receptor A3),other results
Cn1c(=O)c2[nH]c(-c3ccc(S(=O)(=O)N4CCN(c5ccccc5)CC4)cc3)cc2n(C)c1=O,8.22,,,solubility [1]: < 10 µg/mL
CCCn1c(=O)c2[nH]c(-c3ccc(S(=O)(=O)NCCc4ccccn4)cc3)cc2n(C)c1=O,,6.91,6.07,
COc1ccc(NS(=O)(=O)c2ccc(-c3cc4c([nH]3)c(=O)n(C)c(=O)n4C)cc2)cn1,,7.27,5.82,
Cn1c(=O)c2[nH]c(-c3ccc(S(=O)(=O)N4CCN(Cc5cccc(F)c5)CC4)cc3)cc2n(C)c1=O,,6.82,5.05,
Cn1c(=O)c2[nH]c(-c3ccc(S(=O)(=O)NCCc4ccccn4)cc3)cc2n(C)c1=O,,6.82,5.68,AUC [2]: 985 ng·h/mL; solubility [3]: 57 µg/mL; Tmax [4]: 6 h
Cn1c(=O)c2[nH]c(-c3ccc(S(=O)(=O)N4CCN(Cc5ccncc5)CC4)cc3)cc2n(C)c1=O,7.57,,,
Cn1c(=O)c2[nH]c(-c3ccc(OCC(=O)Nc4ccc(Br)cc4)cc3)cc2n(C)c1=O,,,,AUC [2]: < 20 ng·h/mL; solubility [1]: < 10 µg/mL
CCn1c(=O)c2[nH]c(-c3ccc(S(=O)(=O)N4CCN(Cc5cccc(F)c5)CC4)cc3)cc2n(CC)c1=O,7.82,6.46,4.66,
Cn1c(=O)c2[nH]c(-c3ccc(S(=O)(=O)N4CCN(Cc5ccc(F)cc5F)CC4)cc3)cc2n(C)c1=O,8.15,6.90,,
Cn1c(=O)c2[nH]c(-c3ccc(S(=O)(=O)N4CCN(Cc5ccc(Cl)s5)CC4)cc3)cc2n(C)c1=O,,6.99,5.28,
CCCn1c(=O)n(C)c(=O)c2[nH]c(-c3ccc(S(=O)(=O)N4CCN(Cc5cccc(F)c5)CC4)cc3)cc21,7.77,,,
CN(C1CCN(Cc2ccccc2)CC1)S(=O)(=O)c1ccc(-c2cc3c([nH]2)c(=O)n(C)c(=O)n3C)cc1,7.05,,,
Cn1c(=O)c2[nH]c(-c3ccc(S(=O)(=O)NCCOc4ccccn4)cc3)cc2n(C)c1=O,,6.40,5.19,
Cn1c(=O)c2[nH]c(-c3ccc(S(=O)(=O)N4CCN(Cc5ccccc5)CC4)cc3)cc2n(C)c1=O,,6.38,5.50,AUC [2]: 252 ng·h/mL; solubility [3]: 70 µg/mL; Tmax [4]: 6 h
CCCn1c(=O)n(C)c(=O)c2[nH]c(-c3ccc(S(=O)(=O)N4CCN(Cc5ccc6c(c5)OCO6)CC4)cc3)cc21,7.89,6.99,4.83,
Cn1c(=O)c2[nH]c(-c3ccc(S(=O)(=O)NC4CCN(Cc5ccccc5)CC4)cc3)cc2n(C)c1=O,7.37,,,
CCCn1c(=O)c2[nH]c(-c3ccc(S(=O)(=O)NC4CCN(Cc5ccccc5)CC4)cc3)cc2n(CCC)c1=O,7.74,7.23,5.83,
Cn1c(=O)c2[nH]c(-c3ccc(S(=O)(=O)Nc4ccccn4)cc3)cc2n(C)c1=O,,7.17,5.88,
Cn1c(=O)c2[nH]c(-c3ccc(S(=O)(=O)N4CCN(Cc5ccc(F)cc5)CC4)cc3)cc2n(C)c1=O,8.00,,,
COc1ccc(CNS(=O)(=O)c2ccc(-c3cc4c([nH]3)c(=O)n(C)c(=O)n4C)cc2)nc1,7.70,7.00,4.42,
CCCn1c(=O)c2[nH]c(-c3ccc(S(=O)(=O)N4CCN(Cc5ccc(C#N)cc5)CC4)cc3)cc2n(C)c1=O,8.22,6.43,6.02,Selectivity ratio [5]: 160; Selectivity ratio [6]: 62
CCn1c(=O)c2[nH]c(-c3ccc(S(=O)(=O)NC4CCN(Cc5ccc(F)cc5)CC4)cc3)cc2n(CC)c1=O,7.92,6.69,5.37,
Cn1c(=O)c2[nH]c(-c3ccc(S(=O)(=O)N4CCN(Cc5ccc(Br)cc5)CC4)cc3)cc2n(C)c1=O,9.00,6.74,4.91,Selectivity ratio [5]: 12300; Selectivity ratio [6]: 183
CCn1c(=O)c2[nH]c(-c3ccc(S(=O)(=O)NCCc4ccccn4)cc3)cc2n(CC)c1=O,7.12,6.85,4.72,
CCCn1c(=O)c2[nH]c(-c3ccc(S(=O)(=O)NCc4ccc(OC)cn4)cc3)cc2n(C)c1=O,7.82,7.92,5.12,
